According to patent publication US7533723B2, “Well bore treatment fluid” (Schlumberger Technology Corporation, priority 2003, dated 2009):
Several values for one entry are separate records, joined by “and”; a condition that tells them apart may be missing. Identical values can stand only once.

What was measured:
[1] = Well-mixed bottle tests: dilution of treatment fluid with brine or oil; format: physicochemical; conditions: T=25° C.
Description: In this case, the DPM solvent is 100% miscible with oil or brine.
Note that the oil and the treatment fluid are miscible.

[2] = Text: For the case of abietic acid, calcium abietate (Dertocal), polymerised calcium abietate (MERIGRAL™) and the phenolic modified resins (RESENOL™ and GRANOLITE™), insoluble residues were removed by filtration and the numbers given in Table 1 relate to the soluble fraction after filtration.
[3] = Brine follow-up treatments, series of 3 treatments in 2-ft sand pack; conditions: 10 wt % in DPM
Description: The selective response to injections of treatment fluid and brine was carried out in porous media.
An experiment was performed in a 2-ft sand pack at ambient temperature and Sw=1. The experiment consisted in a series of 3 pack treatments (using a process of treatment fluid injection followed by brine injection), followed by brine backflow between each of the three treatments. The fluid used was 10 wt % resinate (calcium abietate, Dertocal) dissolved in DPM.
The volume of the treated zone is ⅔ of the pore volume (⅓ treatment fluid+⅓ brine). As shown, permeability reduced with each treatment.

[4] = Selective response in porous media, two feet long sandpacks (water zone / oil zone); conditions: for Brine permeability reduction corrected for treatment depth: water zone
Description: Candidate solvent-based treatment fluids were evaluated in porous media. […] Duplicate two feet long sandpacks were prepared using a specific blend of sand and silica flour.
Experiments were used to evaluate a treatment fluid containing 5 wt % calcium abietate pre-dissolved in a DPM/brine mixture.

[5] = remark: listed apart in the source
Description: Sandpack experiments were performed to evaluate the recovery of oil permeability after brine-induced precipitation.
The permeability ratio K(oil)/initial K(brine) is shown on the vertical y axis and this is plotted against the brine saturation (vol %) in the core.
The dark curve plotted with diamonds relates to the experiment wherein the starting point is a 10-ft pack saturated with brine (Sw=1, brine permeability Kw=960 mD). Oil is then flushed through it until the steady state is reached. During this operation, the water saturation in the pack decreases as water is mobilized and removed by the flow of oil. The oil permeability (Ko) is determined regularly during the process. The ratio K(oil)/initial K(brine) is then calculated and plotted against the water saturation. The oil permeability at steady state is 1300 mD, which gives Ko/Kwi=1.35 at Sw=29.5%.
The lighter curve plotted with triangles relates to the experiment wherein the 10-ft pack is saturated with brine (Sw=1, brine permeability Kw=800 mD). Half of it is then treated with 5 wt % resinate (calcium abietate, Dertocal) dissolved in solvent (DPM). Brine is then backflowed through the pack until the steady state is reached. […] Then, oil is flushed through the pack until the steady state is reached (Ko=1061 mD). Again, the ratio K(oil)/initial K(brine) is calculated and plotted against the water saturation. […]

[6] = Berea sandstone permeability experiments; conditions: 10 wt % in DPM, brine postflush, 20 psi/ft
Description: An experiment was performed in a 1 foot 250 mD Berea sandstone core at Sw=1, using a process of treatment fluid injection followed by follow-up brine injection.
Treatment fluid used: 10 wt % resinate (Calcium abietate, Dertocal) in solvent (DPM). The volume of the treated zone was ⅔ of the pore volume (⅓ treatment fluid+⅓ brine).
Brine permeability before treatment: 250 mD.
Brine permeability in the treated zone was reduced by 70%. The biggest damage (precipitation) appeared near the wellbore (region 1) where the reduction was 73%.
The biggest damage appeared near the wellbore (regions 1) where the reduction was 60%.

[7] = Abietate in pure diesel, Berea sandstone water and oil zones; conditions: 30 wt % dissolved in diesel, 50° C.
Description: The plot of FIG. 9 deals with the performance in water zones at 50° C. (Berea sandstone, k 100-150 mD; brine: 5 wt % NH4Cl in DI water) of the oil-based system (no miscibility with water/brine). The system contained 30 wt % calcium abietate dissolved in diesel.
The damage in the water zone was a function of the oil saturation prior to treatment. […] Since the brine and diesel-based treatment fluid are immiscible, it is unlikely that the precipitation of waxy solids accounts for the damage observed. Whilst it is possible that some minor precipitation may occur at interfaces, we suspect a viscous oil or viscous interface effect may be playing a role in reducing kbrine after backflow to steady-state.

CC(C)C1=CC2=CCC3[C@](C)(CCC[C@@]3(C)C(=O)O)C2CC1 (stereo partly drawn) [Abietic Acid, Abietic acid]
Behaviour on dilution with brine: [brine] at precipitation ([1]; 5 wt % dissolved in pure DPM): [brine] = 33 vol %
Solubility, Brine wt % [2]: 0.01 wt %
Solubility, Solvent wt % (solvent chemistry) [2]: ≧30 (DPM^(3)), ≧30 (EB^(4)) wt %

CC(C)C1=CC2=CCC3C(C)(C(=O)O)CCCC3(C)C2CC1 (stereo not drawn) [Ca Abietate, Calcium abietate]
% Reduction (cumulative) ([3]; after treatment I): 51%
% Reduction (cumulative) ([3]; after treatment II): 72%
% Reduction (cumulative) ([3]; after treatment III): 88%
Behaviour on dilution with brine: [brine] at precipitation ([1]; 5 wt % dissolved in pure DPM): [brine] = 23 vol %
Solubility, Brine wt % [2]: 0.01 wt %
Brine permeability reduction corrected for treatment depth ([4]; 5 wt % pre-dissolved in DPM/brine mixture): 54%
Brine permeability reduction corrected for treatment depth ([4]; 20 wt % in DPM, 20 psi/ft, 25° C.): 65% and 69%
Effect on permeability to oil ([4]; not told): no effect on permeability to oil
Brine permeability reduction ([5]; 5 wt % in DPM, half of 10-ft pack treated, brine backflow to steady state): 25%
Oil permeability Ko at steady state after oil flush ([5]; not told): 1061 mD
Brine permeability reduction in the treated zone ([6]; T=60° C.): 33.5%
Brine permeability reduction near the wellbore (regions 1) ([6]; T=60° C.): 60%
Brine permeability reduction in the treated zone ([6]; ambient temperature): 70%
Brine permeability reduction near the wellbore (region 1) ([6]; ambient temperature): 73%
% retained koil in oil zones [7]: 85-100%
kbrine reduction in water zones ([7]; So(pre-treatment) range 0-25%, brine 5 wt % NH4Cl): ≥ 70%

CC12CCC(CC1=O)C2(C)C (stereo not drawn) [Camphor, camphor]
Solubility, Brine wt % [2]: very
Solubility, Oil wt % [2]: ≧50.0^(7) wt %
Solubility, Solvent wt % (solvent chemistry) [2]: ≧50.0 (DPM^(3)) wt %

calcium neo-decanoate [Ca neo-Decanoate (dry^B)]
Behaviour on dilution with brine: [brine] at precipitation ([1]; 10 wt % dissolved in pure DPM): [brine] = 67 vol %

calcium neo-tridecanoate [Ca neo-Tridecanoate (dry)]
Behaviour on dilution with brine: [brine] at precipitation ([1]; 10 wt % dissolved in pure DPM): [brine] = 70 vol %
